Reference: US7056891B2 (priority 2000, dated 2006)
Where two headings read alike, the source gives them in different places.

Columns and labels:
S. aureus MN8 = format: cell-based, Staphylococcus aureus; details: 24 hours at 35° C.
TSST-1 = format: cell-based, S. aureus MN8

| Substance | Final [S. aureus] (S. aureus MN8) | TSST-1 (TSST-1; 24 hours at 35° C.) [ng/mL] | TSST-1 (TSST-1) [ng/mL] |
| --- | --- | --- | --- |
| Steareth-2 | 5.76 x10^9 CFU/ml | 680.7 | – |
| PPG-5 Laureth-5 | 3.82 x10^9 CFU/ml | – | 609.2 |
| Laureth-4 | 4.57 x10^9 CFU/ml | 531.8 | – |
